Source: patent US5627152A, “Method for increasing bodyweight” (Telluride Pharmaceutical Corporation, priority 1995, dated 1997)

Tests used:
[1] = Oral glutathione capsules in healthy subjects: bodyweight and percent bodyfat by the caliper method; type: in vivo, human; conditions: for percentage bodyfat at end of treatment: caliper method
Experimental: A healthy subject who wished to gain more weight in the form of lean muscle tissue, was treated for five weeks with one capsule containing 250 mg glutathione four times daily resulting in a total daily dosage of 1000 mg glutathione.
A healthy subject who wished to add bodyweight in the form of lean muscle, was treated for seven weeks with one capsule containing 500 mg of glutathione, four times per day. The totally daily dose was 2,000 mg of glutathione.
A […] healthy male subject who wished to add bodyweight in the form of lean muscle, was treated for seven weeks with two capsule of 500 mg of glutathione, three times per day. The totally daily dose was 3,000 mg of glutathione.
A healthy subject who wished to add bodyweight in the form of lean muscle was treated for six weeks with two capsules containing 500 mg of glutathione, twice daily. The totally daily dose was 2,000 mg of glutathione.

[2] = tested on: guinea pigs; conditions: high doses; cited from earlier work

N[C@@H](CCC(=O)N[C@@H](CS)C(=O)NCC(=O)O)C(=O)O [glutathione, -L-glutamyl-cysteinylglycine]
percentage bodyfat at end of treatment ([1]; Example 1: 1000 mg/day, five weeks, start 20.1%): 18.6%
fat at end of treatment ([1]; Example 1: 1000 mg/day, five weeks, start 25 pounds): 24 pounds
muscle, bone and connective tissue at end of treatment ([1]; Example 1: 1000 mg/day, five weeks, start 100 pounds): 105 pounds
percent change in lean bodyweight (gain) ([1]; Example 1: 1000 mg/day, five weeks, without a change in diet or exercise regimen): 5%
bodyweight at end of treatment ([1]; Example 1: healthy person, 250 mg capsule four times daily (1000 mg/day), five weeks, start 125 pounds): 129 pounds
percentage bodyfat at end of treatment ([1]; Example 2: 2,000 mg/day, seven weeks, start 24.9%): 22.3%
fat at end of treatment ([1]; Example 2: 2,000 mg/day, seven weeks, start 55 pounds): 55 pounds
muscle, bone and connective tissue at end of treatment ([1]; Example 2: 2,000 mg/day, seven weeks, start 165 pounds): 193 pounds
percent change in lean body weight ([1]; Example 2: 2,000 mg/day, seven weeks, without a change in diet or exercise regimen): 17%
bodyweight at end of treatment ([1]; Example 2: healthy person, 500 mg capsule four times per day (2,000 mg/day), seven weeks, start 220 pounds): 248 pounds
percentage bodyfat at end of treatment ([1]; Example 3: 3,000 mg/day, seven weeks, start 18.5%): 15.1%
percent change in lean body weight ([1]; Example 3: 3,000 mg/day, seven weeks, no change in diet or exercise regimen): 24.2%
fat at end of treatment ([1]; Example 3: 3,000 mg/day, seven weeks, start 38 pounds): 36 pounds
muscle, bone and connective tissue at end of treatment ([1]; Example 3: 3,000 mg/day, seven weeks, start 165 pounds): 205 pounds
bodyweight at end of treatment ([1]; Example 3: healthy person, two 500 mg capsules three times per day (3,000 mg/day), seven weeks, start 203 pounds): 241 pounds
percentage bodyfat at end of treatment ([1]; Example 4: 2,000 mg/day, six weeks, start 17.2%): 14.9%
fat at end of treatment ([1]; Example 4: 2,000 mg/day, six weeks, start 36 pounds): 36 pounds
muscle, bone and connective tissue at end of treatment ([1]; Example 4: 2,000 mg/day, six weeks, start 176 pounds): 203 pounds
percent change in lean body weight ([1]; Example 4: 2,000 mg/day, six weeks, with a change in diet or exercise regimen (so in the source)): 15.3%
bodyweight at end of treatment ([1]; Example 4: healthy person, two 500 mg capsules twice daily (2,000 mg/day), six weeks, start 212 pounds): 239 pounds
effect on bodyweight (cachexia) [2]: promote cachexia
